The text below walks through data of ChEMBL document CHEMBL5728724, “6-aryl-7-substituted-3-(1H-pyrazol-5-yl)-7H-[1,2,4]triazolo[3,4-b][1,3,4]thiadiazines as inhibitors of the STAT3 pathway with anti-proliferative activity” (2021).

A value given as a limit tells only on which side of the number the result lay.

The target of the test is T1, Signal transducer and activator of transcription 1-alpha/beta (Homo sapiens, UniProt P42224).
T1 sequence (P42224 whole entry): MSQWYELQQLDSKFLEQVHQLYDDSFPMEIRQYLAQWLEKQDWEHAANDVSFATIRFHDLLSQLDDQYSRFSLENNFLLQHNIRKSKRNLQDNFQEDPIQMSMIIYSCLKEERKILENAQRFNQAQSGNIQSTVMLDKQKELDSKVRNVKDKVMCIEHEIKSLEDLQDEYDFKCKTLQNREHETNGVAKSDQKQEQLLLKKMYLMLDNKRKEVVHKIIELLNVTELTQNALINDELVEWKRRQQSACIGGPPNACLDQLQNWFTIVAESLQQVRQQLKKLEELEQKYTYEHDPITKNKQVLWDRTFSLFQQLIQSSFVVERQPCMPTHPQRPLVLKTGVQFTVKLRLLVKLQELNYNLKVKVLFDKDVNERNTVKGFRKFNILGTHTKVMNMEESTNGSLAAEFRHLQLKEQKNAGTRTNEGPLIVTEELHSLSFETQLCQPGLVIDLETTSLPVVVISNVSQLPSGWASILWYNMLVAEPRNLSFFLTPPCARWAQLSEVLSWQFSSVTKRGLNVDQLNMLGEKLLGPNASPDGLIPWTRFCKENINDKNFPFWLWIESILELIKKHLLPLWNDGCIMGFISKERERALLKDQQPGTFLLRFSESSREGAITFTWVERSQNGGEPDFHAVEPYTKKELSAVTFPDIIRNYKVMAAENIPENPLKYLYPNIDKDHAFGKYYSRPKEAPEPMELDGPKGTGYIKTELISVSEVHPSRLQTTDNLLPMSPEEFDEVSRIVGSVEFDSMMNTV
Nature of the test: Bioassay: Compound samples (in 3-5 mg quantities) were evaluated in a variety of assays. All compound submissions were fully characterized (1H, 13C, IR, FIRMS), satisfied purity criteria (≥95% LC/MC, ELS).
Regarding `Clc1ccc(C2=Nn3c(nnc3-c3cc(-c4ccccc4)n[nH]3)SC2)cc1Cl`, the half-maximal inhibitory concentration (IC50) (in general, the concentration at which inhibition is half-maximal) was greater than 50 µM.

For the molecule `CC1=Nn2c(nnc2-c2cc(-c3ccccc3)[nH]n2)SC1`, the IC50 is greater than 50 µM.

In turn, `c1ccc(C2=Nn3c(nnc3-c3[nH]nc4c3CCC4)SC2)cc1` showed an IC50 greater than 50 µM.

For `Clc1ccc(C2=Nn3c(nnc3-c3[nH]nc4c3CCC4)SC2)s1`, the IC50 is greater than 50 µM.

Regarding `c1ccc(-c2cc(-c3nnc4n3N=C(C3CCCCC3)CS4)[nH]n2)cc1`, the IC50 was greater than 50 µM.

In turn, `COc1ccc(C2=Nn3c(nnc3-c3[nH]nc4c3CCC4)SC2C(C)C)cc1` (centres undefined) registered a 50% inhibitory concentration (IC50) greater than 50 µM.

In turn, `Clc1ccc(C2=Nn3c(nnc3-c3cc(-c4ccccc4)n[nH]3)SC2)s1` had a half-maximal inhibitory concentration (IC50) greater than 50 µM.

Consider `c1ccc(C2=Nn3c(nnc3-c3cc(-c4ccccc4)[nH]n3)SC2)cc1`, for which the half-inhibitory concentration (IC50) was greater than 50 µM.

As to `COc1ccc(C2=Nn3c(nnc3-c3[nH]nc4c3CCC4)SC2C)cc1` (centres undefined), the IC50 was greater than 50 µM.

For the molecule `C1CCC(C2=Nn3c(nnc3-c3[nH]nc4c3CCC4)SC2)CC1`, the IC50 was greater than 50 µM.

Consider `CC1Sc2nnc(-c3cc(-c4ccc(F)cc4)n[nH]3)n2N=C1c1ccccc1` (centres undefined), for which the half-maximal inhibitory concentration (IC50) was greater than 30 µM.

Turning to `CC(C)C1Sc2nnc(-c3[nH]nc4c3CCC4)n2N=C1c1ccc(Cl)c(Cl)c1` (centres undefined), the 50% inhibitory concentration (IC50) was greater than 50 µM.

`C1=Nn2c(nnc2-c2[nH]nc3c2CCC3)SC1`: the concentration for half-maximal inhibition (IC50) is greater than 50 µM.

As for `C1=Nn2c(nnc2-c2cc(-c3ccccc3)n[nH]2)SC1`, the IC50 was greater than 50 µM.

In turn, `Clc1ccc(C2=Nn3c(nnc3-c3[nH]nc4c3CCC4)SC2)cc1` registered a half-maximal inhibitory concentration (IC50) greater than 50 µM.

Molecule `CC1=Nn2c(nnc2-c2[nH]nc3c2CCC3)SC1` had an IC50 greater than 50 µM.

Regarding `c1cc(C2=Nn3c(nnc3-c3[nH]nc4c3CCC4)SC2)ccn1`, the IC50 is greater than 50 µM.

Molecule `COc1ccc(C2=Nn3c(nnc3-c3cc(-c4ccc(F)cc4)n[nH]3)SC2C)cc1` (centres undefined) returned a half-maximal inhibitory concentration (IC50) greater than 30 µM.

For the molecule `c1ccc(-c2cc(-c3nnc4n3N=C(c3ccncc3)CS4)[nH]n2)cc1`, the IC50 is greater than 50 µM.
